Experimental data published in the NIST ThermoML archive (doi:10.1021/je700260f).

Conditions: Liquid, Vibrating tube method

FC(C(F)(F)F)C(F)(F)F [1,1,1,2,3,3,3-heptafluoropropane]
Conditions	mass density [kg/m3]
333.13 K, 4181 kPa	1264.9
333.13 K, 4207 kPa	1265.2
333.13 K, 4241 kPa	1265.8
333.13 K, 4278 kPa	1266.2
333.13 K, 4309 kPa	1266.6
333.13 K, 4338 kPa	1266.8
333.13 K, 4364 kPa	1267.4
333.13 K, 4398 kPa	1267.7
333.13 K, 4432 kPa	1268.2
333.13 K, 4463 kPa	1268.6
333.13 K, 4762 kPa	1272.2
333.13 K, 4802 kPa	1272.8
333.13 K, 4834 kPa	1273.3
333.13 K, 4861 kPa	1273.7
333.13 K, 4893 kPa	1274.1
333.13 K, 4916 kPa	1274.2
333.13 K, 4947 kPa	1274.6
333.13 K, 4988 kPa	1275.2
333.13 K, 5015 kPa	1275.4
333.13 K, 5055 kPa	1275.9
333.13 K, 5086 kPa	1276.3
333.13 K, 5123 kPa	1276.9
333.13 K, 5155 kPa	1277.2
333.13 K, 5191 kPa	1277.7
333.13 K, 5224 kPa	1277.9
333.13 K, 5261 kPa	1278.4
333.13 K, 5294 kPa	1278.8
333.13 K, 5325 kPa	1279.1
333.13 K, 5365 kPa	1279.6
333.13 K, 5432 kPa	1280.3
333.13 K, 5541 kPa	1281.7
333.13 K, 5612 kPa	1282.4
333.13 K, 5635 kPa	1282.8
333.13 K, 5673 kPa	1283.2
333.13 K, 25651 kPa	1419.9
333.13 K, 25679 kPa	1419.9
333.13 K, 25788 kPa	1420.5
333.13 K, 27375 kPa	1427.5
333.13 K, 27408 kPa	1427.7
333.13 K, 27436 kPa	1427.8
333.13 K, 33941 kPa	1454.3
333.13 K, 33977 kPa	1454.4
333.13 K, 34019 kPa	1454.5
333.13 K, 34054 kPa	1454.8
333.13 K, 34100 kPa	1454.9
333.13 K, 34136 kPa	1455
333.14 K, 1234 kPa	1218
333.14 K, 1254 kPa	1218.5
333.14 K, 1281 kPa	1218.9
333.14 K, 1309 kPa	1219.4
333.14 K, 1332 kPa	1220.1
333.14 K, 1355 kPa	1220.5
333.14 K, 1386 kPa	1221.1
333.14 K, 1403 kPa	1221.3
333.14 K, 1427 kPa	1221.8
333.14 K, 1448 kPa	1222.1
333.14 K, 1472 kPa	1222.6
333.14 K, 1496 kPa	1223.2
333.14 K, 1520 kPa	1223.5
333.14 K, 1540 kPa	1223.9
333.14 K, 1568 kPa	1224.4
333.14 K, 1593 kPa	1224.9
333.14 K, 1614 kPa	1225.4
333.14 K, 2164 kPa	1235.1
333.14 K, 2189 kPa	1235.5
333.14 K, 2224 kPa	1236.1
333.14 K, 2254 kPa	1236.5
333.14 K, 2277 kPa	1237
333.14 K, 2308 kPa	1237.5
333.14 K, 2330 kPa	1237.9
333.14 K, 2385 kPa	1238.7
333.14 K, 2413 kPa	1239.2
333.14 K, 2434 kPa	1239.4
333.14 K, 2460 kPa	1240
333.14 K, 2489 kPa	1240.4
333.14 K, 2516 kPa	1240.8
333.14 K, 2546 kPa	1241.2
333.14 K, 2576 kPa	1241.8
333.14 K, 2634 kPa	1242.8
333.14 K, 2657 kPa	1243.2
333.14 K, 2684 kPa	1243.6
333.14 K, 2716 kPa	1244.1
333.14 K, 2981 kPa	1248.1
333.14 K, 3011 kPa	1248.6
333.14 K, 3038 kPa	1249
333.14 K, 3071 kPa	1249.5
333.14 K, 3107 kPa	1249.9
333.14 K, 3140 kPa	1250.4
333.14 K, 3169 kPa	1251
333.14 K, 3205 kPa	1251.4
333.14 K, 4501 kPa	1269.1
333.14 K, 4531 kPa	1269.4
333.14 K, 4566 kPa	1269.9
333.14 K, 4601 kPa	1270.4
333.14 K, 4623 kPa	1270.6
333.14 K, 4661 kPa	1271
333.14 K, 4697 kPa	1271.7
333.14 K, 4727 kPa	1272
333.14 K, 5403 kPa	1280.1
333.14 K, 5469 kPa	1280.8
333.14 K, 5503 kPa	1281.2
333.14 K, 5584 kPa	1282.2
333.14 K, 5709 kPa	1283.6
333.14 K, 5750 kPa	1283.9
333.14 K, 5782 kPa	1284.4
333.14 K, 5815 kPa	1284.8
333.14 K, 5845 kPa	1285.1
333.14 K, 5879 kPa	1285.5
333.14 K, 5908 kPa	1285.8
333.14 K, 5941 kPa	1286.1
333.14 K, 5970 kPa	1286.4
333.14 K, 6009 kPa	1287
333.14 K, 6052 kPa	1287.3
333.14 K, 6090 kPa	1287.8
333.14 K, 6133 kPa	1288.1
333.14 K, 6158 kPa	1288.5
333.14 K, 6191 kPa	1289
333.14 K, 6216 kPa	1289.2
333.14 K, 6250 kPa	1289.5
333.14 K, 6472 kPa	1291.9
333.14 K, 6498 kPa	1292.3
333.14 K, 6533 kPa	1292.6
333.14 K, 6555 kPa	1292.7
333.14 K, 6594 kPa	1293.3
333.14 K, 6633 kPa	1293.6
333.14 K, 6668 kPa	1293.9
333.14 K, 6702 kPa	1294.2
333.14 K, 6728 kPa	1294.7
333.14 K, 6758 kPa	1295
333.14 K, 6922 kPa	1296.7
333.14 K, 7050 kPa	1297.8
333.14 K, 7081 kPa	1298.2
333.14 K, 7125 kPa	1298.6
333.14 K, 7151 kPa	1299
333.14 K, 7182 kPa	1299.2
333.14 K, 7209 kPa	1299.5
333.14 K, 7243 kPa	1299.9
333.14 K, 7278 kPa	1300.2
333.14 K, 7311 kPa	1300.4
333.14 K, 7341 kPa	1300.7
333.14 K, 7368 kPa	1301.1
333.14 K, 7402 kPa	1301.4
333.14 K, 7424 kPa	1301.7
333.14 K, 7460 kPa	1302.1
333.14 K, 7496 kPa	1302.4
333.14 K, 7527 kPa	1302.6
333.14 K, 7559 kPa	1303
333.14 K, 7590 kPa	1303.3
333.14 K, 7632 kPa	1303.7
333.14 K, 7670 kPa	1304.1
333.14 K, 7702 kPa	1304.3
333.14 K, 7735 kPa	1304.7
333.14 K, 7767 kPa	1305.1
333.14 K, 7795 kPa	1305.2
333.14 K, 7826 kPa	1305.5
333.14 K, 7864 kPa	1305.9
333.14 K, 7893 kPa	1306.1
333.14 K, 7930 kPa	1306.5
333.14 K, 7957 kPa	1306.8
333.14 K, 7996 kPa	1307.2
333.14 K, 8029 kPa	1307.4
333.14 K, 8057 kPa	1307.7
333.14 K, 8080 kPa	1307.9
333.14 K, 25452 kPa	1419
333.14 K, 25486 kPa	1419
333.14 K, 25524 kPa	1419.3
333.14 K, 25553 kPa	1419.5
333.14 K, 25586 kPa	1419.6
333.14 K, 25615 kPa	1419.7
333.14 K, 25704 kPa	1419.9
333.14 K, 25735 kPa	1420.1
333.14 K, 25762 kPa	1420.4
333.14 K, 25814 kPa	1420.7
333.14 K, 25854 kPa	1420.9
333.14 K, 25874 kPa	1420.9
333.14 K, 25917 kPa	1421.1
333.14 K, 25950 kPa	1421.3
333.14 K, 25976 kPa	1421.4
333.14 K, 26005 kPa	1421.5
333.14 K, 26036 kPa	1421.6
333.14 K, 26069 kPa	1421.8
333.14 K, 26295 kPa	1422.8
333.14 K, 26327 kPa	1422.9
333.14 K, 26353 kPa	1423.1
333.14 K, 26386 kPa	1423.1
333.14 K, 26411 kPa	1423.3
333.14 K, 26444 kPa	1423.3
333.14 K, 26469 kPa	1423.6
333.14 K, 26504 kPa	1423.7
333.14 K, 27209 kPa	1426.8
333.14 K, 27239 kPa	1427
333.14 K, 27284 kPa	1427.1
333.14 K, 27317 kPa	1427.3
333.14 K, 27346 kPa	1427.5
333.14 K, 27465 kPa	1428
333.14 K, 27494 kPa	1428
333.14 K, 27531 kPa	1428.3
333.14 K, 27561 kPa	1428.5
333.14 K, 27595 kPa	1428.4
333.14 K, 28013 kPa	1430.3
333.14 K, 28047 kPa	1430.5
333.14 K, 28080 kPa	1430.6
333.14 K, 28109 kPa	1430.9
333.14 K, 28138 kPa	1430.9
333.14 K, 28167 kPa	1431
333.14 K, 28201 kPa	1431.2
